Experimental data as given in patent US5763400A, “Ecdysis-triggering hormone compositions” (priority 1996, dated 1998).
“Also recorded” adds a separate entry of the source. Ends that are not written are not given here.

What was measured:
[1] = tested on: pharate fourth instar Manduca sexta larvae; assay: Injection into pharate fourth instar larvae (liquid-filled head capsule stage), carboxy-terminus study; conditions: in vivo
Description: The amidated and acid form of the 26 mer of SEQ ID NO:3 was prepared using a solid state synthesizer. This procedure is the same as that described at example 7. The amidated and acid forms of ETH used in the present study were synthesized by Research Genetics Corporation using these standard protocols (5 mg. each of the amidated-ETH and the acid-ETH).

[2] = tested on: isolated nerve cords lacking the tracheal system; assay: Pre-ecdysis and ecdysis motor patterns in isolated nerve cords lacking the tracheal system; assay type: cell-based, Manduca sexta; conditions: absence of the tracheal system
Description: (§1) The entire central nervous system or a chain of abdominal ganglia dissected from pharate fifth instar larvae or pharate pupae were placed in a 300 ml Sylgard bath and bathed in modified Weever's saline. Motor output was recorded extracellularly from dorsal roots of abdominal ganglia A5, A6, and A7 using polyethylene suction electrodes. Potentials were amplified with Grass P-15 AC amplifiers, captured on video tape, and played back on a Gould Brush pen recorder. To record natural pre-ecdysis and ecdtysis, the nervous system was removed after initiation of the behavior.
The tracheal system was removed in all studies. The pattern of pre-eccdysisin isolated pharate 5th instar CNS under natural conditions was quite similar to that elicited by application of 100 nM Mas-ETH. To observe natural pre-ecdysis and ecdysis motor patterns, animals were observed until initiation of pre-ecdysis, at which time nerve cords were quickly removed and prepared for suction electrode recordings. In both instances, pre-ecdysis bursts occurred synchronously in the dorsal nerves of A5-A7 every 10 to 12 seconds with a duration of 5 to 10 sec. Similarly, the burst pattern driving ecdysis in pharate larvae under natural conditions was similar to that resulting from exposure to 1 mM Mas-ETH. Ecdysis bursts occurred every 20 to 30 seconds and were about 20 sec in duration, with an intersegmental delay of about 5 sec. […]

[3] = tested on: pharate adults; assay: Injection into pharate adults: induction of ecdysis (eclosion); assay type: in vivo, Manduca sexta
Description: Pharate pupae responded to injections (400 pmol to 1 nmol) (FIG. 2B; n=12) up to 48 hours prior to natural ecdysis. […] Ecdysis followed after a period of 50 to 90 min. Pharate adults responded to Mas-ETH injections (1 to 2 nmol) up to 24 hours prior to natural ecdysis (n=10). Rotatory movements of the abdomen began within 3 to 10 min of injection and were followed by a period of relative quiescence.

[4] = tested on: isolated central nervous system of pharate 5th instar larvae; assay: Motor burst patterns of isolated central nervous system of pharate 5th instar larvae, bath application; assay type: cell-based, Manduca sexta
Description: as §1
For studies involving bath application of synthetic MasETH, pharate 5th instar nerve cords were dissected at -8 hr prior to ecdysis, using liquid-Lilled head and brown mandibles as morphological markers. Pharate pupae were dissected at 8 hours prior to natural ecdysis using brown bars as the morphological marker.
The tracheal system was removed in all studies. The pattern of pre-eccdysisin isolated pharate 5th instar CNS under natural conditions was quite similar to that elicited by application of 100 nM Mas-ETH. To observe natural pre-ecdysis and ecdysis motor patterns, animals were observed until initiation of pre-ecdysis, at which time nerve cords were quickly removed and prepared for suction electrode recordings. In both instances, pre-ecdysis bursts occurred synchronously in the dorsal nerves of A5-A7 every 10 to 12 seconds with a duration of 5 to 10 sec. Similarly, the burst pattern driving ecdysis in pharate larvae under natural conditions was similar to that resulting from exposure to 1 mM Mas-ETH. Ecdysis bursts occurred every 20 to 30 seconds and were about 20 sec in duration, with an intersegmental delay of about 5 sec. Burst durations and intervals between bursts became longer as the behavior progressed, which corresponded to observations of natural behavior patterns. Optimal Mas-ETH concentrations for triggering pre-ecdysis were lower than those necessary for ecdysis.

[5] = tested on: pharate pupae; assay: Injection into pharate pupae: induction of pre-ecdysis and ecdysis; assay type: in vivo, Manduca sexta; conditions: 400 pmol to 1 nmol
Description: (§2) Natural ecdysis in pharate 5th instar larvae is preceded by a well-defined pre-ecdysis behavior, characterized by dorso-ventral contractions that occur synchronously in abdominal and thoracic segments (Copenhaver and Truman, 1982; Truman and Weeks, 1983, 1985). Contractions, visible as a dimpling of the dorso-lateral body wall, begin in the most posterior segment, and gradually spread anteriorly. Pre-ecdysis behavior typically lasts 60 to 80 min, and is followed by ecdysis behavior, which lasts about 10 min. Ecdysis behavior is characterized by a distinctly different motor pattern consisting of peristaltic waves of contractions, which originate in the most posterior segment and move anteriorly (Weeks and Truman, 1984). Using a pressure transducer to record changes in internal pressure, in vivo measurements of pre-ecdysis and ecdysis contraction patterns were obtained in pharate 5th instar larvae and pharate pupae. Internal hydrostatic pressure was measured in pharate 5th instar larvae and pharate pupae of Manduca sexta with a Gould-Statham P23-ID pressure transducer. The transducer was connected to a saline-filled tube which in turn was attached to the posterior dorsal horn of pharate 5th instar larvae and pharate pupae with low melting point dental wax.
Pharate pupae responded to injections (400 pmol to 1 nmol) (FIG. 2B; n=12) up to 48 hours prior to natural ecdysis. […]

[6] = tested on: pharate 5th instar larvae; assay: Injection into pharate 5th instar larvae: induction of pre-ecdysis and ecdysis behavior; assay type: in vivo, Manduca sexta; conditions: for biological activity of additional EG peptides: initial RPLC data on EG
Description: A peptide with ecdysis-triggering activity was also purified from an extract of 50 pharate pupal EG with reversed-phase liquid chromatography (RPLC) (FIG. 1A) . For HPLC fractionation, freshly-dissected EG were homogenized in acidic methanol (MeOH: H2 O:acetic acid, 90:9:1) and the supernatant was evaporated to dryness. Crude extracts of EG were fractionated with a Microsorb C4 column (wide pore 300 A, 4.6 mm/25 cm), with a linearly increasing gradient of acetonitrile (3 to 53% in 90 min) in constant 0.1% TFA/water using a flow rate of 1 ml/min. Fractions were collected based on UV absorbance (220 nm) and vacuum centrifuged to dryness. Individual fractions were re-suspended in physiological saline and injected into pharate fifth instar Manduca sexta larvae. Induction of preecdysis behavior, visible as synchronous dorso-ventral contractions in body segments, were scored as positive responses.
as §2
During natural pre-ecdysis in the larva, dorso-ventral contractions typically occur every 10 to 12 seconds with a duration of 5 to 7 seconds (FIG. 2A). When pharate larvae were injected with Mas-ETH (20 pmol to 1 nmol), pre-ecdysis began within 2 to 10 min, and the pattern was indistinguishable from that observed under natural conditions (n=13). The pre-ecdysis induced by Mas-ETH injection lasted 35 to 65 min, and was followed by ecdysis (FIG. 2A).
At about 36 hours preceding natural ecdysis in pharate 5th instar larvae, the first signs of apolysis can be observed as an accumulation of molting fluid in the prothorax. About two hours later, head capsule slip occurs (Curtis et al., 1984). Premature ecdysis behavior induced by Mas-ETH injection (34-10 hours prior to natural ecdysis) lasted from 10 to 45 min. […] Mas-ETH triggered successful ecdysis only after the old cuticle is sufficiently digested, some 6 to 8 hr before normal ecdysis. Sensitivity to ETH, therefore, is shown to exist during the pharate stage.
The ETH-PRP1 peptide was dissolved into physiological saline and injected into pharate fifth instar Manduca sexta larvae. A dose range of 50 pmol to 5 nmol was tested.

[7] = tested on: pharate 5th instar larvae; assay: as above; assay type: in vivo, Manduca sexta; conditions: injected into insect larvae
[8] = Physiological actions of ETH-PRP2 (no method described)
[9] = tested on: larval insects; assay: Injection of synthetic Bom-ETH forms into larval insects; assay type: in vivo, Bombyx mori; conditions: free acid at doses much higher than the amidated form
Description: Synthetic Bom-ETH was prepared according to standard solid phase peptide synthesis methods by Research Genetics, Inc. (Birmingham, AL) to provide a peptide having the amino acid sequence of the 23 mer. Both the amidated and free --COOH terminal forms were prepared.

CCOc1ccc2nc(S(N)(=O)=O)sc2c1 [Mas-ETH]
dose causing preecdysis followed by ecdysis [1]: ≤ 1 pmol | pre-ecdysis and ecdysis motor patterns of isolated CNS [2]: elicited motor burst patterns; also recorded: can generate pre-ecdysis and ecdysis motor patterns | pre-ecdysis and ecdysis motor patterns of isolated CNS ([2]; listed as ETH): responds to ETH; also recorded: responded; also recorded: not required | time prior to natural ecdysis at which pharate adults respond to injection ([3]; 1 to 2 nmol, n=10): up to 24 hours | condition of emerged adults ([3]; emerged before resorption of molting fluid): could not inflate their wings | interval of pre-ecdysis bursts (every) ([4]; 100 nM, dorsal nerves of A5-A7): 10 to 15 s | pre-ecdysis burst duration ([4]; 100 nM, dorsal nerves of A5-A7): 5 to 7 s | ecdysis burst duration ([4]; 1 mM Mas-ETH): about 20 sec | intersegmental delay of ecdysis bursts ([4]; 1 mM Mas-ETH): about 5 sec | pre-ecdysis by blood pressure measurements ([5]; earlier stages of development): clear rhythm within minutes | time prior to natural ecdysis at which pharate pupae respond to injection ([5]; n=12): up to 48 hours | behavior exhibited after injection ([6]; injected at head capsule slip, 34 hours prior to normal ecdysis): both pre-ecdysis and ecdysis motor patterns | outcome of premature ecdysis behavior ([6]; injection 34-10 hours prior to natural ecdysis): ecdysis could not be completed | time prior to normal ecdysis at which larvae respond to injection ([6]; pre-ecdysis behavior, n=7): up to 36 hours

ETH-PRP1: 47-mer peptide, Asn 66 to Met 112 of the ETH precursor, SEQ ID NO:14, chemically synthesized (NYDSENRFDIPKLYPWRAENTELYEDDAQPTNGEEINGFYGKQRENM)
ecdysis behavior ([6]; dose range 50 pmol to 5 nmol): did not elicit ecdysis behavior | latency from injection to preecdysis behavior ([6]; dose range 50 pmol to 5 nmol): 15 to 20 min | pre-ecdysis stimulating activity ([6]; in vivo): pre-ecdysis stimulating activity | biological activity of additional EG peptides [6]: ETH-like biological activity | cardioactivity [7]: causes cardioacceleration

ETH-PRP2: 15-mer peptide deduced from the ETH precursor, Gln 20 to Val 34, SEQ ID NO:13 (QVESSFIKPNNVPRV)
cardioacceleration [8]: acts as a cardioaccelerator | effect on physiological actions of Mas-ETH [8]: increasing its ecdysis triggering activity | biological activity of additional EG peptides [6]: ETH-like biological activity

SNEAFDEDVMGYVIKSNKNIPRM (not fully specified (C-terminus)) [Bom-ETH amidated form]
biological activity upon injection [9]: biologically active
